Measurements as given in US20240002401A1, “IMIDAZOTHIAZOLE COMPOUNDS, PHARMACEUTICAL COMPOSITIONS, AND USES THEREOF” (GUANGZHOU HENOVCOM BIOSCIENCE CO., LTD., priority 2020, published 2024).

Columns and labels:
[1] = Pharmacokinetics test in mice; type: in vivo; details: male SD mice; for F: absolute bioavailability, oral 5 mg/kg vs intravenous 1 mg/kg; for AUC / half-life: mouse, plasma
Text: Pharmacokinetics Test in Mice
Male SD mice were selected for pharmacokinetics test study, plasma concentration at different time points were quantitatively determined by LC/MS/MS method after the mice were intravenously injected and orally administrated with the compounds to be tested, thereby evaluating pharmacokinetics characteristic of the compounds to be tested in SD mice.
SD mice (free food and drink, 6 to 8 weeks old) were intravenously administrated via a foot injection with a clear solution of the compounds to be tested, alternatively, SD mice (free food and drink, 6 to 8 week old) were intragastrically administrated with a suspension of the compounds to be tested. Blood samples were collected from the tail veins of the mice 0.083, 0.25, 0.5, 1, 2, 4, 6, 8, 10, and 24 hours after administration, and each sampling was 0.15 mL. All collected blood samples were placed into centrifuge tubes with EDTA-K2, turned upside and down to mix the anticoagulant with the blood well. The plasma was separated by centrifugation at 1500 g for 10 min at 4° C. within […]. The plasma sample was transferred into a new centrifuge tube and stored at −90° C. to −60° C. until the analysis was performed. LC-MS/MS was used to measure the blood concentration of the compounds to be tested of the present disclosure, and the pharmacokinetic parameters, as well as absolute bioavailability, were calculated by a non-compartment model in Pharsight Phoenix 8.0 software, as shown in Table 2.

ATX = ATX (Homo sapiens, UniProt Q13822); assay: Enzyme activity screening in vitro with LPC as substrate (Amplex Red fluorescence); type: biochemical; details: inhibitory activity against ATX
Text: Analysis In Vitro: LPC was Used as Substrate for Screening Enzyme Activity
Principle: Lysophosphatidylcholine (LPC) as substrate is hydrolyzed by using the activity of lysoPLD enzyme, to produce lysophosphatidic acid (LPA) and choline, which is oxidized to produce H2O2 under the action of choline oxidase. In presence of horse radish peroxidase (HPR), Amplex Red reagent is reacted with H2O2 in a quantitative chemistry ratio of 1 to 1, to produce strong fluorescence products, which are detected by a fluorescent quantitative test.
20 μl of the above mixed solution 1 was added to each hole of an experiment board, […]. The compounds diluted with DMSO were transferred into an experiment board with Echo550. The reaction buffer solution was used for preparing a mixed solution 2 of […] LPC and 400 μM Amplex Red in a final concentration. 20 μl of the above mixed solution 2 was added to each hole of the experiment board. After addition, the experiment board was shook for 30 seconds on a shaker, and incubated for 30 minutes. Envision was used to read the fluorescence signals with an exciting light at 530 nm and emitted light at 590 nm.

[2] = Intravenous injection (1 mg/kg)

F [1] | AUC [1, 2] | half-life [1, 2] | AUC ([1]; Oral administration (5 mg/kg)) | half-life ([1]; Oral administration (5 mg/kg)) | IC50 (ATX) | SMILES
70% | 1670 ng·h/mL | 4.18 h | 5800 ng·h/mL | 3.21 h | 0.01 to 100 nM | CCc1nc2sc(C3CCN(CC(=O)N4CC(O)C4)CC3)cn2c1N(CC)c1nc(-c2ccc(F)cc2)c(C#N)s1 [Embodiment 1, 2-(ethyl(6-ethyl-2-(1-(2-(3-hydroxyazetidin-1-yl)-2-oxoethyl)piperidin-4-yl)imidazo[2,1-b]thiazol-5-yl)amino)-4-(4-fluorophenyl)thiazole-5-carbonitrile]
54% | 972 ng·h/mL | 2.84 h | 2720 ng·h/mL | 3.63 h | 0.01 to 100 nM | CCc1nc2sc(C3CCN(CC(=O)N4CC(O)C4)CC3)cn2c1N(CC1CC1)c1nc(-c2ccc(F)cc2)c(C#N)s1 [Embodiment 2, 2-(cyclopropylmethyl(6-ethyl-2-(1-(2-(3-hydroxyazetidin-1-yl)-2-oxoethyl)piperidin-4-yl)imidazo[2,1-b]thiazol-5-yl)amino)-4-(4-fluorophenyl) thiazole-5-carbonitrile]
70% | 1180 ng·h/mL | 4.18 h | 4190 ng·h/mL | 3.93 h | 0.01 to 100 nM | CCc1nc2sc(C3CCN(CC(=O)NC4CCOCC4)CC3)cn2c1N(CC)c1nc(-c2ccc(F)cc2)c(C#N)s1 [Embodiment 23, 2-(4-(5-((5-cyano-4-(4-fluorophenyl)thiazol-2-yl)(ethyl)amino)-6-ethylimidazo[2,1-b]thiazol-2-yl)piperidin-1-yl)-N-(tetrahydro-2H-pyran-4-yl)acetamide]
114% | 1040 ng·h/mL | 3.32 h | 5500 ng·h/mL | 2.61 h | 0.01 to 100 nM | CCc1nc2sc(C3CCN(CC(=O)NC4COC4)CC3)cn2c1N(CC)c1nc(-c2ccc(F)cc2)c(C#N)s1 [Embodiment 21, 2-(4-(5-((5-cyano-4-(4-fluorophenyl)thiazol-2-yl)(ethyl)amino)-6-ethylimidazo[2,1-b]thiazol-2-yl)piperidin-1-yl)-N-(3-oxacyclobutyl)acetamide]
43% | 1170 ng·h/mL | 2.14 h | 2520 ng·h/mL | 2.23 h | 100 to 500 nM | CCc1nc2sc(C3CCN(CC(=O)N4CC(O)C4)CC3)cn2c1N(c1nc(-c2ccc(F)cc2)c(C#N)s1)C1CC1 [Embodiment 24, 2-(cyclopropyl(6-ethyl-2-(1-(2-(3-hydroxyazetidin-1-yl)-2-oxoethyl)piperidin-4-yl)imidazo[2,1-b]thiazol-5-yl)amino)-4-(4-fluorophenyl)thiazole-5-carbonitrile]
55% | 732 ng·h/mL | 3.11 h | 1900 ng·h/mL | 3.83 h | 0.01 to 100 nM | CCc1nc2sc(C3CCN(CC(=O)N4CC(O)C4)CC3)cn2c1N(c1nc(-c2ccc(F)cc2)c(C#N)s1)C(C)C [Embodiment 25, 2-((6-ethyl-2-(1-(2-(3-hydroxyazetidin-1-yl)-2-oxoethyl)piperidin-4-yl)imidazo[2,1-b]thiazol-5-yl)(isopropyl)amino)-4-(4-fluorophenyl)thiazole-5-carbonitrile]
